Measurements from patent US11679110B2, “Methods of treating disorders using CSF1R inhibitors” (Deciphera Pharmaceuticals, LLC, priority 2018, dated 2023).

System: CD11b+/F4/80+ intratumoral macrophages
Test: Syngeneic MC38 mouse model of colorectal cancer, tumor-associated macrophages by flow cytometry, 7 days of treatment
Format: in vivo
Details: MC38 mice, seven days
Procedure: The protocol and procedures involving the care and use of animals in the syngeneic MC38 mouse xenograft models below were reviewed and approved by the Institutional Animal Care and Use Committee (IACUC) of CrownBio (Taicang Jiangsu Province, China) prior to conduct. During the study, the care and use of animals was conducted in accordance with the regulations of the Association for Assessment and Accreditation of Laboratory Animal Care (AAALAC). All mice had food and water ad libitum. […] In the first experiment, six- to eight-week old female C57BL/6 mice were inoculated subcutaneously in the right lower flank with one million MC38 tumor cells in Phosphate Buffered Saline. […] Tumor volume and body weight were measured thrice weekly. Tumor burden (mg) was estimated from caliper measurements by the formula: tumor burden (mg=mm^3)=(length×width^2)/2. Tumors were collected at 2 hours post the 7th dose on day 18 and freshly processed to assess infiltrating tumor-associated macrophages by flow cytometry using antibodies to CD11b+, F4/80, and CD45+. First, tumors were washed in phosphate-buffered saline and treated with collagenase and DNase. After treatment, cells were repeatedly passed through a 70 μm cell strainer. Cells were further washed, resuspended in red blood cell lysing buffer, then washed again. […]

For Cc1nc(-c2cnc(NC(C)C)n(C)c2=O)ccc1Oc1ccnc(-c2cnn(C)c2)c1 [Compound 1, 2-(isopropylamino)-3-methyl-5-(6-methyl-5-((2-(1-methyl-1H-pyrazol-4-yl)pyridin-4-yl)oxy)pyridin-2-yl)pyrimidin-4(3H)-one], the “reduction in CD11b+/F4/80+ intratumoral macrophages (as a percent of CD45+ cells in the tumor)” value (5, 10, 15 mg/kg QD oral) was “dose-dependent reduction” and the “reduction of intratumoral macrophages (as a percent of CD45+ cells in the tumor)” value (high dose (15 mg/kg QD oral)) was ~67%.
